Data on one compound can be found in US20080103127A1, “METHODS FOR TREATING DISRUPTIVE BEHAVIOR DISORDERS” (priority 2006, published 2008).

The subject of the assay is submissive rats. Nature of the assay: Reduction of Submissive Behavior Model (RSBM) of depression, dominant-submissive rat food competition test. Type of assay: in vivo, Sprague-Dawley rats. The source says:
In this study, the effects of COMPOUND #7 on dominant or submissive behavior in pairs of rats competing for food are examined. It has been shown that anti-manic drugs, including anticonvulsants, decrease dominance and antidepressant drugs reduce submissiveness. This model uses dominant behavior as a model of mania and submissive behavior as a model of depression. The dominance and submissiveness is defined in a competition test and measured as the relative success of two food-restricted rats to gain access to a feeder. Rats are randomly paired and placed in an apparatus allowing them to compete for a food reward. The dominant-submissive relationship develops over a 2-week period. The submissive or dominant animals in pairs selected after 2 weeks of training were treated orally […] (b.i.d.) with COMPOUND #7 at 3 or 30 mg/kg for 5 weeks. The partner of the drug-treated animal was treated with vehicle.
The objective of this study was to determine if COMPOUND #7 is active in the Reduction of Submissive Behavior Model (RSBM) of depression and the Reduction of Dominant Behavior Model (RDBM) of mania. Measurements were made at two doses (3 and 30 mg/kg) after oral twice a day (b.i.d.) administration. The effect of the drug in the RSBM was compared to the effect of fluoxetine (10 mg/kg) and vehicle (0.5% methylcellulose). The effect of the drug in the RDBM was compared with the effect of lithium (100 mg/kg) and vehicle (0.5% methylcellulose). The endpoints measured were the development of a significant reduction of submissive or dominant behavior and its time of onset.
The DSR developed by two rats competing for food uses the apparatus in FIG. 1. The methodology and equipment are described in several publications. (See, Malatynska E, Goldenberg R, Shuck L, Haque A, Zamecki P, Crites G, Schindler N, Knapp R J. Reduction of submissive behavior in rats: a test for antidepressant drug activity. Pharmacology 2002; 64:8; Malatynska E, Rapp R, Crites G. Dominant behavior measured in a competition test as a model of mania. In: International Behavioral Neuroscience Society Meeting, ed. IBNSCapri, Italy, 2002, p 26.; Bonnet U. Moclobemide: therapeutic use and clinical studies. CNS Drug Rev 2003; 9:97; Danysz W, Plaznik A, Kostowski W, Malatynska E, Jarbe T U, Hiltunen A J, Archer T. Comparison of desipramine, amitriptyline, zimeldine and alaproclate in six animal models used to investigate antidepressant drugs. Pharmacol Toxicol 1988; 62:42; Knapp R J, Goldenberg R, Shuck C, Cecil A, Watkins J, Miller C, Crites G, Malatynska E. Antidepressant activity of memory-enhancing drugs in the reduction of submissive behavior model. Eur J Pharmacol 2002; 440:27; Kostowski W, Malatynska E, Plaznik A, Dyr W, Danysz W. Comparative studies on antidepressant action of alprazolam in different animal models. Pol J Pharmacol Pharm 1986; 38, 471; Malatynska E, De Leon I, Allen D, Yamamura Hi. Effects of amitriptyline on GABA-stimulated ^36Cl^− uptake in relation to a behavioral model of depression. Brain Res Bull 1995; 37:53; Malatynska E, Kostowski W. The effect of antidepressant drugs on dominance behavior in rats competing for food. Pol J Pharmacol Pharm 1984; 36:531; Malatynska E, Kostowski W. Desipramine antagonizes clonidine-induced suppression of dominance in rats: possible involvement of amygdaloid nuclei. Pol J Pharmacol Pharm 1988; 40:357).
In the experiments described in this report Sprague-Dawley rats weighing 160 to 180 g were used. Testing for the development of a DSR between paired rats begins with the random assignment of rats into pairs. Rats from pairs are housed separately between test sessions with other animals in groups of four. The animals are food-deprived overnight with free access to water.
The test involves placing each member of a pair in opposite chambers of the testing apparatus. These chambers are connected through a narrow tunnel with a small container of sweetened milk at the center. […]

Each structure is given as a SMILES string.

As to `NC(=O)OC[C@@H](O)c1ccccc1Cl` [COMPOUND #7, carisbamate], under “3 mg/kg b.i.d. p.o., 5 weeks, submissive rat treated, partner vehicle”, the “effect on submissive rat behavior” value is given as “did not have any effect”. In addition, the “onset of increased competitiveness of submissive rats (time of treatment)” value (30 mg/kg b.i.d. p.o.) came to 1 week. Also, for the setting “30 mg/kg b.i.d. p.o. vs fluoxetine 10 mg/kg i.p. once a day”, the “efficacy in submissive rats compared with fluoxetine” value is recorded as “same efficacy as fluoxetine”. In addition, the “competitiveness of submissive rat compared to vehicle-treated submissive rats” value (30 mg/kg b.i.d. p.o., 5 weeks, submissive rat treated) is “significantly increased competitiveness”.
